Tests used:
Pseudomonas aeruginosa [1] = experiment: Antimicrobial activity against Pseudomonas aeruginosa; assay type: functional, organism-based
Pseudomonas aeruginosa [2] = experiment: Antimicrobial activity against Pseudomonas aeruginosa infected in mouse assessed as increasing survival rate after 6 days (RVB = 20%); assay type: functional
Salmonella enterica = experiment: Antimicrobial activity against Salmonella enterica infected in mouse assessed as increasing survival rate on day 9 relative to control; assay type: functional
[3] = Inhibition of Pseudomonas aeruginosa MDM1912 T3SS assessed as reduction in ExoS-BLA fusion protein secretion by measuring hydrolysis of the chromogenic beta-lactamase substrate nitrocefin by colorimetric method
[4] = Inhibition of Yersinia pseudotuberculosis serotype 3 T3SS assessed as reduction in YopH protein secretion using p-nitro phenyl phosphat/2-(N-morpholino)ethanesulfonic acid as substrate preincubated for 1 hr at 26 degC and subsequently incubated for 2 hrs at 37 degC followed by addition of substrate and measured after 15 mins
[5] = system: Yersinia pseudotuberculosis; experiment: Inhibition of Yersinia pseudotuberculosis serotype 3 T3SS assessed as reduction in YopD protein secretion at > 13 uM preincubated for 1 hr at 26 degC and subsequently incubated for 3 hrs at 37 degC by Western blot analysis relative to control
[6] = system: Yersinia pseudotuberculosis; experiment: Inhibition of Yersinia pseudotuberculosis serotype 3 T3SS assessed as reduction in YopD protein expression at > 13 uM preincubated for 1 hr at 26 degC and subsequently incubated for 3 hrs at 37 degC by Western blot analysis relative to control

Compound NCCCNCCCCNCCCNC(=O)c1ccccc1C1=c2cc3c4c(c2Oc2c1cc1c5c2CCCN5CCC1)CCC[N+]=4CCC3 has an EC50 (Pseudomonas aeruginosa [1]) of 10 µM, an MIC50 (Pseudomonas aeruginosa [1]) of over 10 µM and a Survival (Pseudomonas aeruginosa [2]) of 100%.

Cc1ccc(C(C)C)c(O)c1 [THYMOL] showed a Survival (Salmonella enterica) of 70%.

Work on O=C(N/N=C/c1cc(Br)cc(Br)c1O)c1ccc([N+](=O)[O-])cc1 yielded an IC50 [3] of 0.8 µM.

Oc1ccc([C@@H]2c3c(O)cc(O)cc3[C@@H]3c4c(cc(O)cc4[C@H]2[C@@H]2c4cc(O)cc5c4[C@@H](c4cc(O)cc(O)c4[C@H]2c2ccc(O)cc2)[C@H](c2ccc(O)cc2)O5)O[C@H]3c2ccc(O)cc2)cc1 showed an IC50 [4] of over 10 µM, an inhibition [5] of 100% and an inhibition [6] of 100%.
